According to PubChem BioAssay AID328 (DTP/NCI, 2004):
Inconclusive results and toxic doses are left out.

Tested on: BDF1 mice, P388 leukemia ip, median survival T/C
Assay: NCI In Vivo Anticancer Drug Screen. Data for tumor model P388 Leukemia (intraperitoneal) in B6D2F1 (BDF1) mice
Conditions: endpoint: median survival time, higher = longer survival
Outline: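 Antitumour effect was judged in vivo: survival in drug-treated mice, normalised to that of vehicle-dosed controls, gives the reported T/C.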

[1] = dose: 50.0 mg/kg/injection, schedule: Q01DX009 (ip), vehicle: saline

COc1ccc(CC2C(=O)NC(C)C(=O)N(C)C3C(=O)N(C)C(Cc4ccc(O)c(c4)Oc4ccc(cc4)C3O)C(=O)NC(C)C(=O)NC(C)C(=O)N2C)cc1 (stereo not drawn)
T/C (dose: 0.11 mg/kg/injection, schedule: Q01DX009 (ip), vehicle: alcohol): 150 % of control
T/C (dose: 0.11 mg/kg/injection, schedule: Q01DX009 (ip), vehicle: saline): 164 % of control
T/C (dose: 0.16 mg/kg/injection, schedule: Q01DX009 (ip), vehicle: alcohol): 158 % of control
T/C (dose: 0.25 mg/kg/injection, schedule: Q01DX009 (ip), vehicle: alcohol): 188 % of control
T/C (dose: 1.0 mg/kg/injection, schedule: Q01DX009 (ip), vehicle: distilled water + Tween-80): 173 % of control
T/C (dose: 10.0 micrograms/kg/injection, schedule: Q01DX009 (ip), vehicle: alcohol): 110 % of control
T/C (dose: 518.0 micrograms/kg/injection, schedule: Q04DX003 (ip), vehicle: other): 163 % of control
T/C (dose: 864.0 micrograms/kg/injection, schedule: Q04DX003 (ip), vehicle: other): 184 % of control
T/C (dose: 1440.0 micrograms/kg/injection, schedule: Q04DX003 (ip), vehicle: other): 175 % of control
T/C (dose: 2400.0 micrograms/kg/injection, schedule: Q04DX003 (ip), vehicle: other): 181 % of control

CC1(C)CCCC(Cl)(C(Cl)c2ccccc2)C1=O (stereo not drawn)
T/C (dose: 75.0 mg/kg/injection, schedule: Q01DX001 (ip), vehicle: other): 100 % of control
T/C (dose: 150.0 mg/kg/injection, schedule: Q01DX001 (ip), vehicle: other): 95 % of control
T/C (dose: 300.0 mg/kg/injection, schedule: Q01DX001 (ip), vehicle: other): 95 % of control

FC(F)(F)c1ccc(C=Nc2ccc(Oc3ccccc3)cc2)cc1
T/C (dose: 50.0 mg/kg/injection, schedule: Q01DX009 (ip), vehicle: saline with Tween-80): 98 % of control
T/C (dose: 100.0 mg/kg/injection, schedule: Q01DX009 (ip), vehicle: saline with Tween-80): 100 % of control
T/C (dose: 200.0 mg/kg/injection, schedule: Q01DX009 (ip), vehicle: saline with Tween-80): 91 % of control

CC12CCOC(=O)/C=C/C=C/C(=O)OC3CC4OC5C6OC6(C)CCC5(COC(=O)C1O2)C3(C)C41CO1 (stereo not drawn)
T/C (dose: 2.5 mg/kg/injection, schedule: Q01DX009 (ip), vehicle: saline + alcohol): 154 % of control
T/C (dose: 10.0 mg/kg/injection, schedule: Q01DX009 (ip), vehicle: saline + alcohol): 157 % of control

CCOC1CC2c3ccccc3C1c1cccc[n+]12 (stereo not drawn)
T/C (dose: 9.37 mg/kg/injection, schedule: Q01DX009 (ip), vehicle: saline): 108 % of control
T/C (dose: 18.75 mg/kg/injection, schedule: Q01DX009 (ip), vehicle: saline): 108 % of control
T/C (dose: 37.5 mg/kg/injection, schedule: Q01DX009 (ip), vehicle: saline): 91 % of control

Cc1cccc2c1C(=O)OC2(C)c1cccc2ccccc12 (stereo not drawn)
T/C (dose: 50.0 mg/kg/injection, schedule: Q04DX003 (ip), vehicle: saline with Tween-80): 99 % of control
T/C (dose: 100.0 mg/kg/injection, schedule: Q04DX003 (ip), vehicle: saline with Tween-80): 96 % of control
T/C (dose: 200.0 mg/kg/injection, schedule: Q04DX003 (ip), vehicle: saline with Tween-80): 118 % of control
T/C (dose: 400.0 mg/kg/injection, schedule: Q04DX003 (ip), vehicle: saline with Tween-80): 95 % of control

N/C(=N/N=C/c1ccncc1)N[N+](=O)[O-]
T/C [1]: 90 % of control

Cc1nn(-c2ccccc2)c(N)c1C#N
T/C (dose: 6.25 mg/kg/injection, schedule: Q01DX009 (ip), vehicle: saline): 111 % of control
T/C (dose: 12.5 mg/kg/injection, schedule: Q01DX009 (ip), vehicle: saline): 94 % of control
T/C (dose: 12.5 mg/kg/injection, schedule: Q04DX003 (ip), vehicle: saline): 98 % of control
T/C (dose: 25.0 mg/kg/injection, schedule: Q01DX009 (ip), vehicle: saline): 102 % of control
T/C (dose: 25.0 mg/kg/injection, schedule: Q04DX003 (ip), vehicle: Klucel (hydroxypropylcellulose) (HPC)): 98 % of control
T/C (dose: 25.0 mg/kg/injection, schedule: Q04DX003 (ip), vehicle: saline): 163 % of control
T/C [1]: 111 % of control
T/C (dose: 50.0 mg/kg/injection, schedule: Q04DX003 (ip), vehicle: Klucel (hydroxypropylcellulose) (HPC)): 98 % of control
T/C (dose: 50.0 mg/kg/injection, schedule: Q04DX003 (ip), vehicle: saline): 86 % of control
T/C (dose: 100.0 mg/kg/injection, schedule: Q01DX009 (ip), vehicle: saline): 96 % of control
T/C (dose: 100.0 mg/kg/injection, schedule: Q04DX003 (ip), vehicle: Klucel (hydroxypropylcellulose) (HPC)): 121 % of control
T/C (dose: 100.0 mg/kg/injection, schedule: Q04DX003 (ip), vehicle: saline): 87 % of control
T/C (dose: 200.0 mg/kg/injection, schedule: Q01DX009 (ip), vehicle: saline): 111 % of control
T/C (dose: 200.0 mg/kg/injection, schedule: Q04DX003 (ip), vehicle: Klucel (hydroxypropylcellulose) (HPC)): 113 % of control
T/C (dose: 200.0 mg/kg/injection, schedule: Q04DX003 (ip), vehicle: saline): 269 % of control
T/C (dose: 400.0 mg/kg/injection, schedule: Q01DX009 (ip), vehicle: saline): 105 % of control
T/C (dose: 400.0 mg/kg/injection, schedule: Q04DX003 (ip), vehicle: Klucel (hydroxypropylcellulose) (HPC)): 102 % of control
